In PubChem BioAssay (NCI):
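These data come from cells grown in 96-well plates and exposed to compound for 48 hours at five concentrations. GI50 marks 50% less growth. Definition used: TGI = concentration required for complete inhibition of growth.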

How the values were obtained:
Assay in all cases: NCI-60 cell line screen, 48 h
A498 renal = system: A498 renal
ACHN renal = system: ACHN renal
HCC-2998 colon = system: HCC-2998 colon
HS 578T breast = system: HS 578T breast
RXF 393 renal = system: RXF 393 renal
SF-539 CNS = system: SF-539 CNS
SK-OV-3 ovarian = system: SK-OV-3 ovarian
MCF7 breast = system: MCF7 breast
OVCAR-8 ovarian = system: OVCAR-8 ovarian
BT-549 breast = system: BT-549 breast

Compound	GI50 (A498 renal)	TGI (A498 renal)	GI50 (ACHN renal)	TGI (ACHN renal)	GI50 (HCC-2998 colon)	TGI (HCC-2998 colon)	GI50 (HS 578T breast)	TGI (HS 578T breast)	GI50 (RXF 393 renal)	TGI (RXF 393 renal)	GI50 (SF-539 CNS)	TGI (SF-539 CNS)	GI50 (SK-OV-3 ovarian)	TGI (SK-OV-3 ovarian)	TGI (MCF7 breast)	TGI (OVCAR-8 ovarian)	TGI (BT-549 breast)	GI50 (BT-549 breast)	GI50 (MCF7 breast)	GI50 (OVCAR-8 ovarian)
CCCCCCCCCCCCCC[n+]1ccc(C)cc1	2.93 µM	12.6 µM	3.23 µM	10.9 µM	0.708 µM	2.04 µM	2.39 µM	8.8 µM	1.05 µM	2.35 µM	1.77 µM	4.72 µM	1.8 µM	5.56 µM						
O=C(O)/C=C/c1c[nH]c(=O)[nH]c1=O	> 500 µM	> 500 µM				> 500 µM			> 500 µM	> 500 µM		> 500 µM		> 500 µM	> 500 µM	> 500 µM				
COc1ccc(-c2c(-c3ccccc3)c(C)nc3nc(SC)nc(SC)c23)cc1OC		56.9 µM		> 100 µM		> 100 µM		82.3 µM		> 100 µM		23 µM		> 100 µM	> 100 µM		> 100 µM			
CC12CCC(CC1)C(C)(C)O2		99.6 µM				97.7 µM				56.9 µM		90.1 µM		223 µM	27.9 µM	133 µM				
CC(C)c1ccccc1SCc1cc(=O)cc(CSc2ccccc2C(C)C)o1		40.9 µM		> 100 µM		84.5 µM		32.9 µM		> 100 µM				48 µM	57.5 µM	54.9 µM				
Cc1cccc(N2C(=O)C3c4[nH]c5ccc(C)cc5c4C4CCC(C(C)(C)C)CC4C3C2=O)c1 (configuration not stated)																47.7 µM	> 100 µM			
CSc1nc(N)c2c(-c3ccccc3)c3c(nc2n1)CCCC3				> 100 µM				48.5 µM		94.2 µM		> 100 µM		> 100 µM	> 100 µM	> 100 µM	> 100 µM			
C=C1C(=O)OC2CC(C)C3C4OC4C(O)C3(C)C(O)C12 (configuration not stated)		44.4 µM				75.8 µM				53.7 µM		45.6 µM		98.8 µM	66.7 µM	91.6 µM				
C=C=CC(NC(=O)c1ccccc1)(C(=O)O)C(F)(F)F (configuration not stated)		> 100 µM		> 100 µM		> 100 µM				> 100 µM		> 100 µM				> 100 µM				
C/C(N=NS(=O)(=O)c1ccc([N+](=O)[O-])cc1)=C1\C=CC=CN1O		> 100 µM		> 100 µM		> 100 µM						> 100 µM		> 100 µM		> 100 µM				
CCCCOP(C)(=O)C(NC(=O)OCC)(C(F)(F)F)C(F)(F)F (configuration not stated)		> 100 µM		> 100 µM		> 100 µM		> 100 µM		> 100 µM		> 100 µM		> 100 µM	> 100 µM	> 100 µM	> 100 µM			
O=C1/C(=C/c2ccc(O)cc2)COc2ccc(O)c(O)c21			1.99 µM	4.72 µM	3.61 µM	13.1 µM	3.12 µM	> 100 µM	1.55 µM	3.82 µM	1.82 µM	4.97 µM			> 100 µM	> 100 µM	7.69 µM	1.97 µM	2.18 µM	3.51 µM
O=C(SCc1cccc2ccccc12)c1ccc(Cl)cc1		> 100 µM		> 100 µM		> 100 µM		> 100 µM		> 100 µM		> 100 µM		> 100 µM	> 100 µM	> 100 µM	> 100 µM			
